Where a SMILES comes first, the peptide text is derived from it. Where no end group is shown, it is not given here.
How the values were obtained:
murine spleen cells = test: IL-2 production by Concanavalin A activated murine spleen cells (CTLL-2 cell assay); assay type: cell-based, CBA mice; details: for interleukin-2 production by murine spleen cells: Table 6; for IL-2 production by murine spleen cells: Table 2
Protocol: Spleen cells from CBA mice were cultured in tissue culture plates at a 10^6 cells/ml in RPMI-1640 medium supplemented with 10% fetal calf serum, 2 mM L-glutamine, and 80 μg/ml of Gentamycin. 1 μg/ml of Concanavalin A was used to activate basal IL-2 production from murine spleen lymphocytes. Bestim was added to cell cultures at the "0" time. After 36 hours supernatants were collected, centrifuged at 800 xg and IL-2 levels were measured in a CTLL-2 cell assay (Gillis et al., "T-cell Growth Factor: Parameters of Production and Quantitative Assay for Activity," J. Immunol., 120: 2027-2032, 1978). […] However, due to the variations in the method for IL-2 measurements clear dose-response comparisons could not be achieved.
IL-2 production studies have been performed using murine spleen lymphocytes activated with Concanavalin A. Spleen cells from CBA mice were cultured in a tissue culture plates at a 1×10^6 /ml concentration in RPMI-1640 medium supplemented with 10% fetal calf serum, 2 mM L-glutamine,80 μg/ml Gentamycin and 1 μg/ml Concanavalin A as an inducer of basal level IL-2 synthesis. Bestim at various concentration was added to cell cultures at the "0" time. After 36 hours supernatants were collected, centrifuged at 800 xg and used for IL-2 levels determination in a CTLL-2 cell assay (Gillis et al., 1978). IL-2-dependent CTLL-2 cells were grown in RPMI-1640 medium in the presence of 1-2 U/ml recombinant IL-2 as a growth factor. Before assay, cells were washed twice to remove IL-2 from the medium. After this wash tested supernatants were added and cells were incubated for 36 hours. IL-2-induced proliferation was assayed using a ^3 H-thymidine incorporation method.

murine bone marrow cells = test: .THETA.-antigen expression on murine bone marrow cells (T-lymphocyte precursor differentiation); assay type: cell-based, CBA strain mice; parameters: .THETA.-antigen expression on murine bone marrow cells: unit not given here; details: for immunostimulatory activity in the in vitro assays used: .THETA.-antigen expression and IL-2 production assays, compared with Bestim; for Percent of murine bone marrow cells expressing .THETA.-antigen: Table 5; for .THETA.-antigen expression on murine bone marrow cells: Table 1
Protocol: Differentiation of murine T-lymphocyte precursors was studied by the enumeration of cells expressing early surface differentiation marker .THETA.-antigen. Bone marrow cells were obtained from CBA strain mice killed by cervical dislocation. Cells were washed from femur bones with Hank's balanced salt solution and washed 3 times with RPM 1-1640 medium by centrifugation at 400 xg. Peptides at desired concentrations were incubated with 1×10^6 /ml of obtained cells for 1 hour at 37° C. Theta-antigen (".THETA.-antigen") expression has been determined with antibrain antibodies in a cytotoxicity assay using complement-dependent cell lysis (Terasaki et al., "Microdroplet Lymphocyte Cytotoxicity Test. Manual of Tissue Typing Techniques," National Institutes of Health, Bethesda, Md., pp 50-55, 1972). Dead cells were counted microscopically after eosin staining. […] Its activity was much stronger than that of the reference thymogen peptide.
Differentiation of murine T-lymphocyte precursors was studied by the enumeration of cells expressing early surface differentiation marker--.THETA.-antigen which is an analog of the Thy-1 lymphocyte differentiation antigen. Bone marrow cells were obtained from CBA strain mice killed by cervical dislocation. Cells were washed from femur bones with Hank's balanced salt solution and washed 3 times with RPMI-1640 medium by centrifugation at 400 xg. Peptides at desired concentrations were incubated with 1×10^6 /ml of obtained cells for 1 hour at 37° C. .THETA.-antigen expression were determined with antibrain antibodies in a cytotoxicity assay using complement-dependent cell lysis (Terasaki et al., 1972). Dead cells were counted microscopically after eosin staining untreated bone marrow cells served as a negative control, and murine thymocytes as a positive control.

[1] = cited from earlier work

Compound	interleukin-2 production by murine spleen cells (murine spleen cells; peptide 0.001 μg/ml)	interleukin-2 production by murine spleen cells (murine spleen cells; peptide 0.01 μg/ml)	interleukin-2 production by murine spleen cells (murine spleen cells; peptide 0.1 μg/ml)	interleukin-2 production by murine spleen cells (murine spleen cells; peptide 1.0 μg/ml)	interleukin-2 production by murine spleen cells (murine spleen cells; peptide 10 μg/ml)	interleukin-2 production by murine spleen cells (murine spleen cells; peptide 100 μg/ml)	immunostimulatory activity in the in vitro assays used (murine bone marrow cells)	Percent of murine bone marrow cells expressing .THETA.-antigen (murine bone marrow cells; peptide 0.0001 μg/ml)	Percent of murine bone marrow cells expressing .THETA.-antigen (murine bone marrow cells; peptide 0.001 μg/ml)	Percent of murine bone marrow cells expressing .THETA.-antigen (murine bone marrow cells; peptide 0.01 μg/ml)	Percent of murine bone marrow cells expressing .THETA.-antigen (murine bone marrow cells; peptide 0.1 μg/ml)	Percent of murine bone marrow cells expressing .THETA.-antigen (murine bone marrow cells; peptide 1.0 μg/ml)	Percent of murine bone marrow cells expressing .THETA.-antigen (murine bone marrow cells; peptide 10 μg/ml)	Percent of murine bone marrow cells expressing .THETA.-antigen (murine bone marrow cells; peptide 100 μg/ml)	other results
CN[C@@H](CCC(=O)N[C@@H](Cc1c[nH]c2ccccc12)C(=O)O)C(=O)O [B, N-methyl-γ-L-glutamyl-L-tryptophan]	134 ± 6	147 ± 8	152 ± 7	165 ± 6	171 ± 6	180 ± 11	active compounds were obtained	20%	29%	34%	40%	47%	51%	53%	–
CC(=O)N[C@@H](CCC(=O)N[C@@H](Cc1c[nH]c2ccccc12)C(=O)O)C(=O)O [C, N-acetyl-γ-L-glutamyl-L-tryptophan]	128 ± 7	136 ± 7	149 ± 5	157 ± 9	170 ± 4	174 ± 8	active compounds were obtained	19%	28%	35%	40%	45%	46%	50%	–
N[C@@H](CCC(=O)N[C@@H](Cc1cn(C=O)c2ccccc12)C(=O)O)C(=O)O [D, γ-L-glutamyl-Nin -formyl-L-tryptophan]	114 ± 16	125 ± 3	153 ± 20	132 ± 8	144 ± 7	154 ± 5	active compounds were obtained	24%	25%	30%	36%	42%	48%	53%	–
N[C@@H](CCC(=O)O)C(=O)N[C@@H](Cc1c[nH]c2ccccc12)C(=O)O [Thymogen, L-glutamyl-L-tryptophan, reference compound] (H-Glu-Trp-OH)	115 ± 8	132 ± 16	118 ± 11	128 ± 5	129 ± 10	136 ± 4	–	–	–	18%	20%	25%	29%	32%	IL-2 production by murine spleen cells (murine spleen cells; peptide 0.001 μg/ml, 36 hours): 114 ± 12; IL-2 production by murine spleen cells (murine spleen cells; peptide 0.01 μg/ml): 106 ± 10; IL-2 production by murine spleen cells (murine spleen cells; peptide 0.1 μg/ml): 106 ± 5; IL-2 production by murine spleen cells (murine spleen cells; peptide 1.0 μg/ml): 189 ± 13; IL-2 production by murine spleen cells (murine spleen cells; peptide 10 μg/ml): 80 ± 9; IL-2 production by murine spleen cells (murine spleen cells; peptide 100 μg/ml): 89 ± 3; .THETA.-antigen expression on murine bone marrow cells (murine bone marrow cells; peptide 0.0001 μg/ml, 1 hour 37° C.): 10 ± 0.5; .THETA.-antigen expression on murine bone marrow cells (murine bone marrow cells; peptide 0.001 μg/ml): 10 ± 1.2; .THETA.-antigen expression on murine bone marrow cells (murine bone marrow cells; peptide 0.01 μg/ml): 10 ± 0.5; .THETA.-antigen expression on murine bone marrow cells (murine bone marrow cells; peptide 0.1 μg/ml): 9 ± 1.0; .THETA.-antigen expression on murine bone marrow cells (murine bone marrow cells; peptide 1.0 μg/ml): 21 ± 0.8; .THETA.-antigen expression on murine bone marrow cells (murine bone marrow cells; peptide 10 μg/ml): 36 ± 2.8; .THETA.-antigen expression on murine bone marrow cells (murine bone marrow cells; peptide 100 μg/ml): 37 ± 2.2
N[C@@H](CCC(=O)N[C@@H](Cc1c[nH]cn1)C(=O)O)C(=O)O [γ-L-glutamyl-L-histidine]	–	–	–	–	–	–	little, if any, of the activities of Bestim	–	–	–	–	–	–	–	–
CC[C@H](C)[C@H](NC(=O)CC[C@H](N)C(=O)O)C(=O)O [γ-L-glutamyl-L-isoleucine]	–	–	–	–	–	–	little, if any, of the activities of Bestim	–	–	–	–	–	–	–	–
CC(C)C[C@H](NC(=O)CC[C@H](N)C(=O)O)C(=O)O [γ-L-glutamyl-L-leucine]	–	–	–	–	–	–	little, if any, of the activities of Bestim	–	–	–	–	–	–	–	–
N[C@@H](CCC(=O)N[C@@H](Cc1ccccc1)C(=O)O)C(=O)O [γ-L-glutamyl-L-phenylalanine]	–	–	–	–	–	–	little, if any, of the activities of Bestim	–	–	–	–	–	–	–	–
N[C@@H](CCC(=O)N1CCC[C@H]1C(=O)O)C(=O)O [γ-L-glutamyl-L-proline]	–	–	–	–	–	–	little, if any, of the activities of Bestim	–	–	–	–	–	–	–	–
N[C@@H](CCC(=O)N[C@@H](Cc1ccc(O)cc1)C(=O)O)C(=O)O [γ-L-glutamyl-L-tyrosine]	–	–	–	–	–	–	little, if any, of the activities of Bestim	–	–	–	–	–	–	–	–
RKDVY [thymopentin, Arg-Lys-Asp-Val-Tyr]	–	–	–	–	–	–	–	–	–	–	–	–	–	–	half-life of breakdown in plasma [1]: 30 s
γ-L-glutamyl-β-thienyl-D-alanyl-amide	146 ± 28	127 ± 26	128 ± 10	156 ± 11	172 ± 12	198 ± 7	active compounds were obtained	20%	23%	20%	27%	28%	36%	40%	–

Source: patent US5744452A, “γ-L-glutamyl containing immunomodulator compounds and methods therewith” (Wei; Edward T., priority 1995, dated 1998)
